Measurements as given in US4938897A (Kureha Kagaku Kogyo Kabushiki Kaisha, priority 1985, dated 1990).

What was measured:
mouse = conditions: for reference; cited from earlier work
[1] = Fluorescent determination (emission wave length); assay type: physicochemical; conditions: for emitted light wave length: ethyl acetate
From the text: As a result of fluorescent determination at a wave length of excitation light of 356 nm, the emitted light of 520 nm in wave length with ethyl acetate was observed.
As a result of fluorescent determination at a wave length of excitation light of 357 nm, the emitted light of 525 nm in wave length of this substance with ethyl acetate was observed.
Onto a chromatographic column prepared by filling 400 g of silica gel (made by Merck Co. under the name of Art 7734) into a glass tube of 36 mm in inner diameter and 865 mm in length by using chloroform, a solution of 12 g of the crude product dissolved in 50 ml of chloroform was charged, and the absorbed product was subjected to elution by a flow of chloroform at a flow rate of 7 ml/min, thereby 1400 ml of a fraction showing one spot on the chromatogram were obtained. By condensing the fraction, 9 g of wet product were obtained. The wet product was dissolved in 30 ml of chloroform, and after adding 50 ml of hexane to the prepared solution, the mixture was cooled while stirring thereof, however, since no crystal was precipitated therefrom, the solvent was distilled off therefrom by using an evaporator and the residue was dried under vacuum to obtain 7 g of a solid, fluorescent substance in a yield of 68.2%. […] Its emission fluorescence was 521 nm by the excitation light of 358 nm.

FLOW 4000 cell = assay: Suppression of proliferation of human normal renal cells (FLOW 4000); assay type: cell-based; conditions: 5 μg/ml, 37° C.
Procedure: (§1) Into a culture medium consisting of 90% by weight of DALBECCO MEM and 10% of bovine foetus serum, a solution of the test substance in dimethylsulfoxide at a rate of 5 μg/ml was added (dimethylsulfoxide being 1% of the culture medium). After adjusting the pH of the three culture media respectively to 6.5, 7.0 and 7.8, the target cells were implanted into each culture medium at a rate of 2×10^4 cells/ml, and the culture media were incubated at 37° C. in an atmosphere of 5% of carbon dioxide for 3 and 6 days. After ending the incubation, the number of living cells which were not dyed with Trypan blue enumerated in the cultured medium to calculate the rate of suppression of the proliferation of the fibroblasts as follows: [formula] where Nc is the number of the living fibroblasts in control group and Nt is the number of living fibroblasts in the test group both in the unit area.
(§2) The activity of one of the present substance, 3-dansyloxyestradiol-17β-[[4-[p-{bis(2-chloroethyl)amino}phenyl]butyryloxy]]acetate, in suppressing the proliferation of (1) human nomal renal cells (FLOW 4000) and (2) human renal cancer cells (RC) was examined as follows:
(§3) Into the same culture medium as in Example 4, a solution of the test substance dissolved in dimethylsulfoxide was added at a rate of 5 μg/ml (dimethylsulfoxide being 1% of the culture medium), and after adjusting the three culture media respectively to pH of 6.5, 7.0 and 7.8, the cells were implanted into each culture medium at a rate of 2×10^4 cells/ml, and the culture media implanted were incubated for 6 days at 37° C. in an atmosphere of 5% of carbon dioxide. The rate of suppression of the proliferation of the implanted cells was calculated by the same formula as in Example 4, the results being shown in Table 2.

3T3 SV-40 cells = assay: Suppression of proliferation of mouse fibroblasts transformed by SV-40 virus (3T3 SV-40), Trypan blue living cell count; assay type: cell-based; conditions: for Rate of suppression (%): 3T3 SV-40 cells, 5 μg/ml
Procedure: (§4) The activity of one of the present substances, 3-dansyloxyestradiol-17β-[[4-[p-{bis(2-chloroethyl)amino}phenyl]butyryloxy]]acetate in suppressing the proliferation of (1) the fibroblasts of mouse (3T3) and (2) transformed fibroblasts of mouse by SV-40 virus (3T3 SV-40) was studied by in vitro tests as follows:
as §1
(§5) The activity of one of the present substance, 3-dansyloxyestradiol-17β-[[2-[p-{bis(2-chloroethyl)amino}phenyl]acetoxy]]acetate in suppressing the proliferation of mouse fibroblasts (3T3) and SV-40 virus-transformed fibroblasts (3T3 SV-40) was examined by the same method as in Example 4 except for (1) the days of incubation of 3 and 5 days instead of 3 and 6 days in Example 4 and (2) the pH of the culture medium of 6.7 instead of 6.7, 7.0 and 7.8 in Example 4.

[2] = tested on: human renal cancer cells (RC) vs normal human renal cells (FLOW 4000); assay: Intaking of test substance by RC cells compared to FLOW 4000 cells, fluorescence microscope; assay type: cell-based; conditions: Example 8; 37° and 40° C. incubation
Procedure: In the similar manner to that in Example 7, intaking of one of the present substances, 3-dansyloxyestradiol-17β-[[4-[p-{bis(2-chloroethyl)amino}phenyl]butyryloxy]]acetate by the normal human renal cells (FLOW 4000) and the human renal cancer cells (RC) was examined by using the same fluorescence microscope as in Example 7. The incubation of the implanted cells was carried out at 37° and 40° C.

RC cell = assay: Suppression of proliferation of human renal cancer cells (RC); assay type: cell-based; conditions: 5 μg/ml, 37° C.; for Rate of suppression (%): RC cell
Procedure: as §1, §2, §3

3T3 cells = assay: Suppression of proliferation of mouse fibroblasts (3T3), Trypan blue living cell count; assay type: cell-based; conditions: 5 μg/ml
Procedure: as §4, §1, §5

[3] = tested on: 3T3 SV-40 cells vs 3T3 cells; assay: Intaking of test substance by 3T3 SV-40 cells compared to 3T3 cells, fluorescence microscope; assay type: cell-based, mouse
Procedure: Intaking of one of the present substances, 3-dansyloxyestradiol-17β-[[4-[p-{bis(2-chloroethyl)amino}phenyl]butyryloxy]]acetate, by mouse fibroblasts (3T3) and mouse transformed fibroblasts by SV-40 virus (3T3 SV-40) was examined with a fluorescence microscope under the following conditions:
Concentration of the test substance: 10 and 50 μg/ml
pH of culture medium: 6.5 and 7.8
Number of implanted cells: 2×10^4 cells/ml
Temperature and days of incubation: 37° C. for 5 days
Fixation: by aqueous 2.5% glutaraldehyde phosphate buffer for 90 minutes
Examination: by using a microscope (made by Olympus, BHS-RFK) with an exciting filter UGI and auxiliary absorption filter Y-475.
In the similar manner to that in Example 6, intaking of one of the present substances, 3-dansyloxyestradiol-17β-[[2-[p-{bis(2-chloroethyl)amino}phenyl]acetoxy]]acetate by mouse fibroblast (3T3) and mouse transformed fibroblast by SV-40 virus (3T3 SV-40) was studied.

[4] = pH 6.7, 3 days, 37° C. (Example 6)
[5] = pH 6.7, 5 days, 37° C. (Example 6)

Structure (SMILES): O=C(O)CCCc1ccc(N(CCCl)CCCl)cc1 [chlorambucil]
- LD50 (mouse): 20 mg/kg body weight

Structure (SMILES): CN(C)c1cccc2c(S(=O)(=O)Oc3ccc4c(c3)CC[C@@H]3[C@@H]4CC[C@]4(C)[C@H](OC(=O)COC(=O)CCCc5ccc(N(CCCl)CCCl)cc5)CC[C@@H]34)cccc12 [3-dansyloxyestradiol-17α-[[4-[p-{bis(2-chloroethyl)amino}phenyl]butyryloxy]]acetate]
- emitted light wave length ([1]; excitation light 357 nm): 525 nm

Structure (SMILES): CN(C)c1cccc2c(S(=O)(=O)Oc3ccc4c(c3)CC[C@@H]3[C@@H]4CC[C@]4(C)[C@@H](OC(=O)COC(=O)c5ccc(N(CCCl)CCCl)cc5)CC[C@@H]34)cccc12 [3-dansyloxyestradiol-17β-[[1-[p-{bis(2-chloroethyl)amino}phenyl]carbonyloxy]]acetate]
- emission fluorescence ([1]; excitation light 358 nm): 521 nm

Structure (SMILES): CN(C)c1cccc2c(S(=O)(=O)Oc3ccc4c(c3)CC[C@@H]3[C@@H]4CC[C@]4(C)[C@@H](OC(=O)COC(=O)CCCc5ccc(N(CCCl)CCCl)cc5)CC[C@@H]34)cccc12 [3-dansyloxyestradiol-17β-[[4-[p-{bis(2-chloroethyl)amino}phenyl]butyryloxy]]acetate]
- Rate of suppression (%) (FLOW 4000 cell; pH 6.5, 6 days): 27.83%
- Rate of suppression (%) (FLOW 4000 cell; pH 7.0, 6 days): 14.00%
- Rate of suppression (%) (FLOW 4000 cell; pH 7.8, 6 days): -1.10%
- Rate of suppression (%) (3T3 SV-40 cells; pH 6.5, 3 days, 37° C.): 64.19%
- Rate of suppression (%) (3T3 SV-40 cells; pH 6.5, 6 days, 37° C.): 91.60%
- Rate of suppression (%) (3T3 SV-40 cells; pH 7.0, 3 days, 37° C.): 55.80%
- Rate of suppression (%) (3T3 SV-40 cells; pH 7.0, 6 days, 37° C.): 85.88%
- Rate of suppression (%) (3T3 SV-40 cells; pH 7.8, 3 days, 37° C.): 31.60%
- Rate of suppression (%) (3T3 SV-40 cells; pH 7.8, 6 days, 37° C.): 38.80%
- activity of suppressing the proliferation of transformed cells by SV-40 virus (in words) (3T3 SV-40 cells; Example 4, pH range of from 6.5 to 7.8, 5 μg/ml): clearly showed an activity of suppressing the proliferation of transformed cells by SV-40 virus
- Intaking of the test substance by RC cells compared to FLOW 4000 cells [2]: remarkable as compared to that by the normal human cells (FLOW 4000) at both 37° and 40 °C
- suppression of the proliferation of human renal cancer cells (RC) (in words) (RC cell; Example 5, 6 days): clearly suppressed the proliferation of the human renal cancer cells (RC)
- Rate of suppression (%) (RC cell; pH 6.5, 6 days): 54.54%
- Rate of suppression (%) (RC cell; pH 7.0, 6 days): 46.68%
- Rate of suppression (%) (RC cell; pH 7.8, 6 days): 22.39%
- emitted light wave length ([1]; excitation light 356 nm): 520 nm
- Rate of suppression (%) (3T3 cells; pH 6.5, 3 days, 37° C.): 16.8%
- Rate of suppression (%) (3T3 cells; pH 6.5, 6 days, 37° C.): 14.76%
- Rate of suppression (%) (3T3 cells; pH 7.0, 3 days, 37° C.): 6.45%
- Rate of suppression (%) (3T3 cells; pH 7.0, 6 days, 37° C.): 20.03%
- Rate of suppression (%) (3T3 cells; pH 7.8, 3 days, 37° C.): 7.87%
- Rate of suppression (%) (3T3 cells; pH 7.8, 6 days, 37° C.): 11.30%
- Intaking of the test substance by 3T3 SV-40 cells compared to 3T3 cells ([3]; Example 7, 10 and 50 μg/ml, pH 6.5 and 7.8, 37° C., 5 days): remarkably recognized as compared to that by 3T3 cells

Structure (SMILES): CN(C)c1cccc2c(S(=O)(=O)Oc3ccc4c(c3)CC[C@@H]3[C@@H]4CC[C@]4(C)[C@@H](OC(=O)COC(=O)Cc5ccc(N(CCCl)CCCl)cc5)CC[C@@H]34)cccc12 [3-Dansyloxyestradiol-17β-[[2-[p-{bis(2-chloroethyl)amino}phenyl]acetoxy]]acetate]
- Rate of suppression (%) (3T3 SV-40 cells; [4]): 55.72%
- Rate of suppression (%) (3T3 SV-40 cells; [5]): 85.86%
- Rate of suppression (%) (3T3 cells; [4]): 25.24%
- Rate of suppression (%) (3T3 cells; [5]): 53.28%
- Intaking of the test substance by 3T3 SV-40 compared to 3T3 ([3]; Example 9, FIG. 8: 5 μg/ml, pH 6.5, 4 days): remarkable as compared to that by 3T3
